Tests used:
[1] = target: T1, tyrosinase (Homo sapiens, UniProt P14679); experiment: Whitening efficacy test, in vitro cell-based tyrosinase activity (MNT-1 cells); conditions: 72 hours, final 100 μM GSH, 1 μM Apt G, 0.01% arbutin, L-DOPA, absorbance 475 nm
T1 sequence (P14679 19-529): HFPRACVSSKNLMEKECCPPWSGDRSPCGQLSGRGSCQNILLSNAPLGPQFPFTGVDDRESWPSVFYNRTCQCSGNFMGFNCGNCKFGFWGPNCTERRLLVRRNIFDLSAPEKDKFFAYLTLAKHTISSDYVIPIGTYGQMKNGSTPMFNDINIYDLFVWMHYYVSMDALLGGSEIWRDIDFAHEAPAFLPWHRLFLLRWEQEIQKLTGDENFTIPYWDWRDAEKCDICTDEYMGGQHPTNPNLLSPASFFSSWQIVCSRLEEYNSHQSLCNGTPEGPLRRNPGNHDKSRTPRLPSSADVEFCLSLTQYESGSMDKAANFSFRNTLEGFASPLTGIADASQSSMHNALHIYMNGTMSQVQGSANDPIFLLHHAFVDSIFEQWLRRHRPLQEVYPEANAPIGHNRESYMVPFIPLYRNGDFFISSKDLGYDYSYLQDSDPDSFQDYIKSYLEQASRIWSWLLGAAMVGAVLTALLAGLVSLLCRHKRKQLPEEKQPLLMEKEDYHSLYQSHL
Method: The final concentration of each component in this experiment was 100 μM GSH, 1 μM Apt G, 0.01% arbutin,
100 μM GSH and 1 μM of the prepared aptamer (molar concentration of 100:1) were added to the media and reacted at room temperature for 30 minutes.
MNT-1 cells were seeded on a 6-well plate and incubated for 24 hours at 37° C., 5% CO2 incubator.
After treating each of the prepared samples, the samples were again incubated at 37° C. and 5% CO2 incubator for 72 hours.
After incubation, ice-cold lysis buffer (RIPA buf.+ protease inhibitor) was used to remove the cells from the plate, and the removed cells were transferred to an EP-tube and centrifuged to remove only the supernatant.
Lysate, L-DOPA, potassium phosphate buffer (pH6.5) was added to a 96 well plate and mixed (each test group used the same amount of protein through protein quantification).
After incubation for 1 hour at 37° C., 5% CO2 incubator, absorbance was measured at 475 nm using a plate reader.

[2] = system: tyrosinase; conditions: final 20 μM GSH; 37° C. 10 minutes; absorbance 490 nm; N=5
Method: The final concentrations of each component in this experiment were 20 μM GSH, 0.2 μM Apt G, and 0.01% arbutin.
300 μM GSH and 3 μM of the prepared aptamer (molar concentration of 100:1) were dissolved in tertiary distilled water and reacted at room temperature for 30 minutes.
In a 96 well plate, 200 μL of 0.1 M potassium phosphate buffer (pH6.5), 20 μL of sample, 20 μL of 2 KU/mL tyrosinase, and 60 μL of 1.0 mM tyrosine were sequentially added and reacted at 37° C. for 10 minutes.
After the reaction, absorbance was measured at 490 nm using a plate reader.

[3] = Antioxidant efficacy test, DTNB assay (sulfhydryl group determination) of GSH stored at 37° C.; conditions: day 16, storage at 37° C.; final 125 μM GSH, 1.25 μM aptamin G; n=5
Method: In this experiment, the final concentration of each component was 125 μM GSH and 1.25 μM aptamin G.
The prepared aptamer (100:1) of the prepared aptamer (100:1) of 250 μM GSH and 2.5 μM was dissolved in the 3th distilled water for 30 minutes at room temperature.
The above GSH-Aptamin G complex was stored for a certain period of time under severe conditions (37° C.), and samples were obtained every 4 days and measured for 16 days.
Just before the sample measurement, 10 mm DTNB (4 mg/ml, buffer: 0.1 M potassium Phosphate buffer, pH 8.0) was prepared to mix the sample (50 μL) of DTNB solution and shaking incubation.
After the reaction, the UV Absorbance value was measured at 412 nm and REF wavelength 605 nm using the Plate Reader.

SMILES: OC[C@H]1O[C@@H](Oc2ccc(O)cc2)[C@H](O)[C@@H](O)[C@@H]1O [Arbutin]
- inhibition of tyrosinase activity (cell test) [1]: about 25%

SMILES: N[C@@H](CCC(=O)N[C@@H](CS)C(=O)NCC(=O)O)C(=O)O [GSH, Glutathione]
- inhibition of the activity of tyrosinase [2]: about 75%
- inhibition of tyrosinase activity (cell test) [1]: tendency not to inhibit the activity of tyrosinase
- amount of GSH remaining unoxidized [3]: about 60%
